Measured values published in ChEMBL document CHEMBL1201862, “PubChem BioAssay data set” (2004).
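The compound was tested at five concentrations on cells cultured in 96-well plates, with a 48-hour exposure period. The concentration for 50% growth inhibition is given as GI50.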 Activity calls are given as the source filed them. Rule as the data show it: active = GI50 up to about 1.1 µM and inactive = higher.

Columns and labels:
Assay in all cases: NCI-60 cell line screen, 48 h
K562 = system: K562
UO-31 = system: UO-31
DLD-1 = system: DLD-1
HL-60 = system: HL-60
NCI-H460 = system: NCI-H460
KM-20L2 = system: KM-20L2
LXFL 529 = system: LXFL 529
CCRF-CEM = system: CCRF-CEM
SW-620 = system: SW-620
COLO 205 = system: COLO 205
SF-268 = system: SF-268
HCT-116 = system: HCT-116
U-251 = system: U-251
SF-539 = system: SF-539
DMS-273 = system: DMS-273
SK-OV-3 = system: SK-OV-3
OVCAR-5 = system: OVCAR-5
HCT-15 = system: HCT-15
RPMI-8226 = system: RPMI-8226
HOP-92 = system: HOP-92
HOP-62 = system: HOP-62
RXF 393 = system: RXF 393
SR = system: SR
KM12 = system: KM12
M14 = system: M14
DMS-114 = system: DMS-114
NCI-H23 = system: NCI-H23
IGROV-1 = system: IGROV-1
XF498 = system: XF498
Malme-3M = system: Malme-3M
NCI-H226 = system: NCI-H226
SNB-19 = system: SNB-19
UACC-62 = system: UACC-62
NCI-H522 = system: NCI-H522
CAKI-1 = system: CAKI-1
LOX IMVI = system: LOX IMVI
HT-29 = system: HT-29
SK-MEL-2 = system: SK-MEL-2
OVCAR-4 = system: OVCAR-4
SN12C = system: SN12C
SK-MEL-28 = system: SK-MEL-28
OVCAR-3 = system: OVCAR-3
SF-295 = system: SF-295
SNB-78 = system: SNB-78
A498 = system: A498
TK-10 = system: TK-10
A549 = system: A549
M19-MEL = system: M19-MEL
SNB-75 = system: SNB-75
RXF 631 = system: RXF 631
UACC-257 = system: UACC-257
786-0 = system: 786-0
OVCAR-8 = system: OVCAR-8
HCC 2998 = system: HCC 2998
ACHN = system: ACHN
MOLT-4 = system: MOLT-4
SK-MEL-5 = system: SK-MEL-5

Compound: CCc1ccccc1NC(=O)CCc1nnc(S)[nH]1
- GI50 (K562): > 100 µM (inactive)
- GI50 (UO-31): > 100 µM (inactive)
- GI50 (DLD-1): > 100 µM (inactive)
- GI50 (HL-60): > 100 µM (inactive)
- GI50 (NCI-H460): > 100 µM (inactive)
- GI50 (KM-20L2): > 100 µM (inactive)
- GI50 (LXFL 529): > 100 µM (inactive)
- GI50 (CCRF-CEM): > 100 µM (inactive)
- GI50 (SW-620): > 100 µM (inactive)
- GI50 (COLO 205): > 100 µM (inactive)
- GI50 (SF-268): > 100 µM (inactive)
- GI50 (HCT-116): > 100 µM (inactive)
- GI50 (U-251): > 100 µM (inactive)
- GI50 (SF-539): > 100 µM (inactive)
- GI50 (DMS-273): > 100 µM (inactive)
- GI50 (SK-OV-3): > 100 µM (inactive)
- GI50 (OVCAR-5): > 100 µM (inactive)
- GI50 (HCT-15): > 100 µM
- GI50 (RPMI-8226): > 100 µM (inactive)
- GI50 (HOP-92): > 100 µM (inactive)
- GI50 (HOP-62): > 100 µM (inactive)
- GI50 (RXF 393): > 100 µM (inactive)
- GI50 (SR): > 100 µM (inactive)
- GI50 (KM12): > 100 µM (inactive)
- GI50 (M14): > 100 µM (inactive)
- GI50 (DMS-114): > 100 µM (inactive)
- GI50 (NCI-H23): > 100 µM (inactive)
- GI50 (IGROV-1): > 100 µM (inactive)
- GI50 (XF498): > 100 µM (inactive)
- GI50 (Malme-3M): > 100 µM (inactive)
- GI50 (NCI-H226): > 100 µM (inactive)
- GI50 (SNB-19): > 100 µM (inactive)
- GI50 (UACC-62): > 100 µM (inactive)
- GI50 (NCI-H522): > 100 µM (inactive)
- GI50 (CAKI-1): > 100 µM (inactive)
- GI50 (LOX IMVI): > 100 µM (inactive)
- GI50 (HT-29): > 100 µM (inactive)
- GI50 (SK-MEL-2): > 100 µM (inactive)
- GI50 (OVCAR-4): > 100 µM (inactive)
- GI50 (SN12C): > 100 µM (inactive)
- GI50 (SK-MEL-28): > 100 µM (inactive)
- GI50 (OVCAR-3): > 100 µM (inactive)
- GI50 (SF-295): > 100 µM (inactive)
- GI50 (SNB-78): > 100 µM (inactive)
- GI50 (A498): > 100 µM (inactive)
- GI50 (TK-10): > 100 µM (inactive)
- GI50 (A549): > 100 µM (inactive)
- GI50 (M19-MEL): > 100 µM (inactive)
- GI50 (SNB-75): > 100 µM (inactive)
- GI50 (RXF 631): > 100 µM (inactive)
- GI50 (UACC-257): > 100 µM (inactive)
- GI50 (786-0): > 100 µM (inactive)
- GI50 (OVCAR-8): > 100 µM (inactive)
- GI50 (HCC 2998): > 100 µM (inactive)
- GI50 (ACHN): > 100 µM (inactive)
- GI50 (MOLT-4): > 100 µM (inactive)
- GI50 (SK-MEL-5): > 100 µM (inactive)
